Structures can show the parent of a compound that is named as a salt.

The test deals with T1, GPR40 (Homo sapiens, UniProt O14842).
T1 construct: expressed in transfected cells
T1 sequence (O14842 whole entry): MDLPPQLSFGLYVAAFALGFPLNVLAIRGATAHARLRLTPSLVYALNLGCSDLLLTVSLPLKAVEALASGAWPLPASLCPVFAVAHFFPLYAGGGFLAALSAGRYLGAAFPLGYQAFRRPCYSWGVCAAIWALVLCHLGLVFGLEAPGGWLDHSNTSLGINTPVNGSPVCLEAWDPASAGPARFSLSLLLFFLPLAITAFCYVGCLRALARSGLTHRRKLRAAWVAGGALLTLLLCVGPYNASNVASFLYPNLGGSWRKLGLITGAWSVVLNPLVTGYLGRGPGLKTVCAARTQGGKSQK
As to the kind of experiment: GPR40 SAR Primary Assay (Elk-1/Gal4-luc+ reporter, luciferase activity). Type of test: cell-based. The conditions noted are these: stable GPR40 Elk-1/Gal4-luc+ CHO cell line, 5 hours incubation. On the procedure: An existing stable GPR40 Elk-1/Gal4-luc^+ CHO cell line generated by electroporation and functional cloning was used. Cells were maintained in a humidified incubator at 37° C./5% CO2 in complete media containing DMEM/F12 (Gibco, #11039-021), 5% FBS (Gibco, #16140-071) and 1% Glutamine (Gibco, #25030-081). Cell maintenance passages were made at 1:40 dilution every 3-4 days. Forty eight hours prior to assay, 15e6 cells were added to 200 ml of complete media then seeded into a 1200 cm^2-cell factory and returned to a humidified incubator at 37° C./5% CO2. 20 hours prior to assay, the growth media was removed and replaced with 200 ml of serum-free DMEM/F12 to quiesce background activity. At the time of assay, cells were harvested using non-enzymatic cell dissociation solution (Sigma, #C-5914), washed and counted. The 20 hour starve media was collected and used as condition media for cell assay plating. Cells were plated at a concentration of 10,000 cells/well in a total well volume of […] in black 96-well clear bottom polystyrene plates (CoStar, #3904). Test compounds were prepared as serial dilutions in 100% DMSO, then 1 ul was delivered to each well resulting in a final concentration of 1% DMSO. The plates were then returned to a humidified incubator at 37° C./5% CO2 for 5 hours. Following the incubation, the medium was replaced with 50 ul of a 1:1 mixture of SteadyGlo™ (Promega, #E2550) and dPBS containing 1 mM CaCl2 and 1 mM MgCl2. Plates were then sealed and subjected to dark adaptation at room temperature for 10 minutes. Luciferase activity was measured on a Packard TopCount™ microplate scintillation counter using 2 seconds per well count time.
Data analysis was performed using standard methods.
The Normalization Equation used was 100*(Unknown compound response−Background response)/(Agonist Max response−Background response).
The Curve Fit Function used was y=((Vmax*x^n)/(K^n+x^n))+Y2.
A percent max response and pEC50 were recorded for each compound. Although specific pEC50 values are given, these values should be considered exemplary. Those skilled in the art will appreciate the variability in performing and recording the biological activity assays that are herein described. The compounds of the present invention provide a pEC50 of at least 5.0.
For the compound `Cc1ccc(Oc2cccc(CNc3ccc([C@H]4C[C@@H]4C(=O)O)cc3)c2)cc1` [Example 34, (+)-(trans)-2-{4-[({3-[(4-methylphenyl)oxy]phenyl}methyl)amino]phenyl}cyclopropanecarboxylic Acid Trifluoroacetate], the concentration for a half-maximal effect (EC50) was 7.94 nM.
In the case of `Cc1nc(-c2ccc(C(F)(F)F)cc2)sc1CNc1ccc(C2CC2C(=O)N[C@@H](C)c2ccccc2)cc1` (stereo partly drawn) [Example 40, Enantiomerically Enriched (trans)-2-{4-[({4-methyl-2-[4-(trifluoromethyl)phenyl]-1,3-thiazol-5-yl}methyl)amino]phenyl}-N-[(1S)-1-phenylethyl]cyclopropanecarboxamide] it was 50.1 nM.
In the case of `Cc1nc(-c2ccc(C(F)(F)F)cc2)sc1CNc1ccc(C2CC2C(=O)NC(C)C)cc1` (stereo not drawn) [Example 53, Enantiomerically Enriched N-isopropyl-2-{4-[({4-methyl-2-[4-(trifluoromethyl)phenyl]-1,3-thiazol-5-yl}methyl)amino]phenyl}cyclopropanecarboxamide] it was 10 nM; in that of `O=C(NCC1CC1)C1CC1c1ccc(NCc2cccc(Oc3ccccc3)c2)cc1` (stereo not drawn) [Example 54, Enantiomerically Enriched N-(cyclopropylmethyl)-2-{4-[(3-phenoxybenzyl)amino]phenyl}cyclopropanecarboxamide], 20 nM.

One may read the EC50 as the midpoint of the concentration-response curve.

The record behind these values is patent US7834013B2, “Aminophenylcyclopropyl carboxylic acids and derivatives as agonists to GPR40” (GlaxoSmithKline LLC, priority 2003, dated 2010).
